Reference: patent US6432961B1, “Method for preventing the onset of asthma” (UCB S.A., priority 1998, dated 2002)

Assays:
[1] = test system: infants with atopic dermatitis; experiment: Adverse events recorded during the 18 month study; assay type: in vivo
Procedure: At each of the nine visits, the atopy status, any concurrent illnesses, concomitant medications and procedures were recorded. Patients underwent a physical examination, including the measurement of vital signs.
Adverse events were recorded by the parents on diary cards and discussed with the investigator at each visit. Serious adverse events had to be reported immediately.
(§1) Oral solutions of cetirizine dihydrochloride (10 mg/ml) and matching placebo, similar in appearance and taste were used. The recommended study dosage was 0.25 mg cetirizine/kg b.i.d. (b.i.d.=“bis in die”, 2 times a day).

[2] = test system: onset of asthma in young children with atopic dermatitis; experiment: 18 month double blind, placebo-controlled study of cetirizine dihydrochloride for preventing the onset of asthma; assay type: in vivo, infants; conditions: for RR for developing asthma when cetirizine treated: versus placebo
From the text: The aim of the study relative to the clinical effect of cetirizine dihydrochloride was to establish on the intention to treat (ITT population) whether an 18 month cetirizine dihydrochloride treatment can prevent the onset of asthma in young children with atopic dermatitis, when compared to placebo. Subgroups based on the baseline status of biological markers as well as specific asthmatic patients (i.e. wheezers only; asthma onset date at least 3 months after inclusion) were foreseen as well. It was considered that a 30% reduction of the incidence of asthma is clinically relevant. Secondary parameters of efficacy included the severity of asthma and atopic dermatitis.
All the infants had to have at least one parent or sibling with a history of atopic disease (atopic dermatitis, allergic rhinitis or asthma). Excluded were infants with asthma, or with a history of any episodes of wheezing or nocturnal cough as well as any condition likely to obscure the diagnosis of asthma (Guidelines for the diagnosis and management of asthma. National Asthma Education and Prevention Program. Expert Panel Report II. National Institute of Health publication 97-4051; International Report. International consensus report on diagnosis and treatment of asthma. National Heart, Lung and Blood Institute. National Institute of Health publication 92-3091).
The study was a prospective, randomized, double blind, parallel group, and placebo-controlled study with cetirizine dihydrochloride.
Study treatment lasted for 18 months. After the treatment period, patients entered a long-term follow-up period.
The primary end-point for efficacy was the onset of asthma, defined as 3 episodes of nocturnal cough with sleep disturbances or wheezing, separated by at least 7 days, in a clinical setting where asthma is likely and conditions other than allergy have been excluded.
Serum total and specific (grass pollen, cow's milk, egg, house dust mites and cat dander) IgE antibody levels were determined using the Pharmacia CAP® system (Pharmacia & Upjohn, Uppsala, Sweden). These analyses were made at baseline, and after 3, 12 and 18 months of treatment by a central laboratory (Institut Pasteur—Lille, France) according to instructions of the manufacturer and routine clinical laboratory performances.
as §1
Sample size was based on an expected cumulative incidence of asthma in 40% of children in the placebo group after 18 months of treatment. A decrease of 30% of the incidence was considered as clinically relevant.

[3] = subgroup with elevated Eosinophil count at baseline

O=C(O)COCCN1CCN(C(c2ccccc2)c2ccc(Cl)cc2)CC1 (centres unmarked) [Cetirizine]
safety in infants ([1]; 18 month treatment, large trial in infants): safe product
urticaria (adverse event frequency) ([1]; cetirizine group versus 16.1% placebo, p<0.001): 5.8%
adverse event (AE) profiles between groups ([1]; cetirizine versus placebo, except for urticaria): no significant differences
Occurrence of Asthma by Treatment ([2]; ITT population, 18 months, 0.25 mg/kg b.i.d. oral): (37.7) %
number of children developing asthma ([2]; early treatment initiated between 1 and 2 years of age, atopic dermatitis, sensitized (specific IgE ≧0.35 kUA/l) to grass pollen or house dust mite): halved
prevention of asthma ([2]; infants with atopic dermatitis and evidence of sensitivity to grass pollen or house dust mite): successfully prevents asthma
risk of developing asthma compared with placebo ([2]; infants with raised baseline total IgE (≧30 kU/l) or specific IgE antibodies (≧0.35 kUA/l)): reduced risk of developing asthma
Occurrence of Asthma by Treatment [2, 3]: (42.7) %
Occurrence of Asthma by Treatment ([2]; subgroup with elevated IgE Cat dander (E1) at baseline (≧0.35 kUA/l)): (40.6) %
Occurrence of Asthma by Treatment ([2]; subgroup with elevated IgE Egg (F1) at baseline (≧0.35 kUA/l)): (31.2) %
Occurrence of Asthma by Treatment ([2]; subgroup with elevated IgE Grass pollen (GX1) at baseline (≧0.35 kUA/l)): (27.8) %
Occurrence of Asthma by Treatment ([2]; subgroup with elevated IgE HDM (D1) at baseline (≧0.35 kUA/l)): (28.6) %
Occurrence of Asthma by Treatment ([2]; subgroup with elevated IgE HDM + Grass pollen at baseline (≧0.35 kUA/l)): (34.2) %
Occurrence of Asthma by Treatment ([2]; subgroup with elevated IgE Milk (F2) at baseline (≧0.35 kUA/l)): (30.7) %
Occurrence of Asthma by Treatment ([2]; subgroup with elevated Total IgE (PRIST) at baseline (≧30 kU/l)): (38.1) %
RR for developing asthma when cetirizine treated [2, 3]: 0.9
RR for developing asthma when cetirizine treated ([2]; subgroup with elevated IgE Cat dander (E1) at baseline): 0.9
RR for developing asthma when cetirizine treated ([2]; subgroup with elevated IgE Egg (F1) at baseline): 0.8
RR for developing asthma when cetirizine treated ([2]; subgroup with elevated IgE Grass pollen (GX1) at baseline): 0.5
RR for developing asthma when cetirizine treated ([2]; subgroup with elevated IgE HDM (D1) at baseline): 0.6
RR for developing asthma when cetirizine treated ([2]; subgroup with elevated IgE HDM + Grass pollen at baseline): 0.6
RR for developing asthma when cetirizine treated ([2]; subgroup with elevated IgE Milk (F2) at baseline): 0.7
RR for developing asthma when cetirizine treated ([2]; subgroup with elevated Total IgE (PRIST) at baseline): 0.9
